Activity calls are given as the source filed them. No rule for the calls is given here.

The nature of this data set: Cytotoxicity activity against human HepG2 cells assessed by CellTiter-Glo luminescent cell viability assay. Format: toxicity, cell-based. The settings on record: HepG2 cells, read-out: IC50 relative. Further details: assay stage confirmatory assay, source tissue liver. (In general: ATP-based viability assays read luminescence as a measure of living cells.)
For the molecule `Nc1nc(S)c2ncn(C3OC(CO)C(O)C3O)c2n1` (stereo not drawn), the CC50 was 2.5 µM (active).

With `Cc1[nH]c2ccccc2c1CN1CCN(c2ccccn2)CC1`, the CC50 is 12.9 µM (inactive).

`NCCCCNS(=O)(=O)c1ccc2c(Cl)cccc2c1`: the CC50 is 13 µM (active).

`CSc1cccc(NS(=O)(=O)c2ccc3c(c2)CCN3C(C)=O)c1`: the CC50 is 6.6 µM (active).

For the molecule `CC1CCC(C(C)C)C(OC(=O)Cn2c(-c3ccc(Br)cc3)[n+](C)c3ccccc32)C1` (stereo not drawn), the CC50 is 4.7 µM (active).

For the molecule `CC1(C)CC(Nc2ccc(Nc3ccccc3)cc2)CC(C)(C)N1`, the CC50 was 10.9 µM (active).

Consider `CCOc1cc(C(Nc2cc(C)ccn2)c2ccc3cccnc3c2O)ccc1OC` (stereo not drawn), for which the CC50 is 3.7 µM (active).

Take `O=[N+]([O-])c1ccc(CN2CCOCCOCCN(Cc3ccc([N+](=O)[O-])cc3)CCOCC2)cc1`: the CC50 is 10.4 µM (active).

As to `Nc1c(C(=O)NCc2ccco2)c2nc3ccccc3nc2n1CCN1CCCCC1`, the CC50 was 8.9 µM (active).

`CCC1=NNc2cccc3c(OC)ccc1c23`: the CC50 was 8.8 µM (active).

With `CC(C)(C)C(=O)/C(=C/c1cccc([N+](=O)[O-])c1)n1cncn1`, the CC50 is 0.6 µM (active).

Take `COc1ccc2c(C)nc(Nc3nc(C)c(C)c(=O)[nH]3)nc2c1`: the CC50 is 6.7 µM (active).

As for `CCOCc1ccc(O)c2ncccc12`, the CC50 was 5.6 µM (active).

With `CC1OC(OC2CC(O)C3(CO)C4C(O)CC5(C)C(C6=CC(=O)OC6)CCC5(O)C4CCC3(O)C2)C(O)C(O)C1O` (stereo not drawn), the CC50 is 0.1 µM (active).

For the molecule `O=S(=O)(c1ccccc1)N1CCN(c2ccc(Nc3ccncc3)nn2)CC1`, the CC50 was 16.9 µM (inactive).

Take `O=C(CC1Sc2ncnn2C1=O)Nc1ccc(Br)cc1` (stereo not drawn): the CC50 is 15.3 µM (inactive).

As to `CCOC(=O)C(C)Oc1cccc2c(=O)n(CC(=O)Nc3ccc4c(c3)OCCO4)ccc12` (stereo not drawn), the CC50 is 50 µM (inactive).

Take `CCOC(=O)C(C)Oc1cccc2c(=O)n(CC(=O)Nc3ccc(OC)cc3)ccc12` (stereo not drawn): the CC50 was 15.4 µM (inactive).

On to `CCOC(=O)C1CCCN(C(=O)C(=O)c2c[nH]c3ccccc23)C1` (stereo not drawn), for which the CC50 was 9.8 µM (active).

In the case of `COc1ccc(Nc2nccc(-c3ccncc3)n2)cc1`, the CC50 was 4.7 µM (active).

On to `Brc1c(Br)c(Br)c2[nH]cnc2c1Br`, for which the CC50 was 7.4 µM (active).

For `O=C1CCCN1c1ccc(S(=O)(=O)Nc2cccc3cccnc23)cc1`, the CC50 is 9.7 µM (active).

In the case of `O=C1C(=O)c2cc([N+](=O)[O-])ccc2-c2ccccc21`, the CC50 is 1.5 µM (active).

With `COc1cc2c(N3CCN(C(=O)Nc4ccc(OC(C)C)cc4)CC3)ccnc2cc1OCCCN1CCCCC1`, the CC50 is 7.4 µM (active).

`C[C@]12CCC3[C@@H](CC[C@]4(O)C[C@@H](O)CC[C@]34C=O)[C@@]1(O)CC[C@@H]2C1=CC(=O)OC1` (stereo partly drawn): the CC50 was 0.4 µM (active).

Regarding `CC1CC[C@@]2(NC1)O[C@H]1C[C@H]3[C@@H]4CC=C5CC(O)CCC5(C)C4CCC3(C)[C@H]1[C@@H]2C` (stereo partly drawn), the CC50 is 25.1 µM (inactive).

On to `COc1ccc(N2C(=O)/C(=C\c3ccc(O)c(Br)c3)SC2=S)cc1`, for which the CC50 is 10.3 µM (active).

`COc1cc(OC)cc(-c2nnc(Nc3nc4c(F)cccc4s3)o2)c1`: the CC50 was 27.8 µM (inactive).

Turning to `CCC(C)C1OC2(CCC1C)CC1CC(C/C=C(/C)C(OC3CC(OC)C(OC4CC(OC)C(O)C(C)O4)C(C)O3)C(C)/C=C\C=C3\COC4C(O)C(C)=CC(C(=O)O1)C34O)O2` (stereo not drawn), the CC50 was 11.1 µM (active).

On to `CN(C)c1nc(Nc2ccc(O)cc2)nc2ccccc12`, for which the CC50 was 9.7 µM (active).

For `CN(C)c1nc(Nc2cccc(O)c2)nc2ccccc12`, the CC50 is 12.7 µM (active).

For `CC1CCN(CCNC(=O)c2c(O)c3sccc3n(Cc3ccccc3)c2=O)CC1`, the CC50 was 22.3 µM (inactive).

For the molecule `Cc1ccc(Cl)cc1N1CCN(c2cc([C@H]3C[C@@H](O)C3)ncn2)CC1`, the CC50 is 9.5 µM (active).

In the case of `CN(C)CCCN(CCCN(C)C)CC(c1ccccc1)c1ccccc1`, the CC50 was 7.2 µM (active).

`COc1ccc(-c2ccc(CNCCNCCO)o2)cc1Cl`: the CC50 is 11.4 µM (active).

Consider `CC1CCN(CC(O)COc2ccccc2C(C)(C)C)CC1` (stereo not drawn), for which the CC50 is 9.6 µM (active).

As for `O=S(=O)(Nc1cccc2cccnc12)c1ccc2c(c1)OCCO2`, the CC50 was 10.4 µM (active).

Regarding `CCOc1ccccc1CN1CCN(Cc2ccc(C)cc2)CC1CCO` (stereo not drawn), the CC50 was 12.9 µM (inactive).

Turning to `CCN1CCN(CCOc2ccc3ccccc3c2Cl)CC1`, the CC50 was 8 µM (active).

As to `COc1cccc(-c2ccc(=O)n(CC(=O)Nc3ccccn3)n2)c1`, the CC50 was 6.8 µM (active).

For the molecule `Cc1cc(OCC(O)CN2CCN(C)CC2)cc(C)c1Cl` (stereo not drawn), the CC50 is 13.9 µM (inactive).

For the molecule `Cc1ccc(S(=O)(=O)N2CCN(c3cc(-n4ccnc4C)ncn3)CC2)cc1C`, the CC50 was 5.1 µM (active).

For the molecule `O=S(=O)(c1ccc(F)cc1)N1CCN(c2ccc(Nc3ccncc3)nn2)CC1`, the CC50 is 13.6 µM (inactive).

With `O=C(Nc1n[nH]c(C2CC2)n1)C1CC(=O)N(c2ccc(Br)cc2)C1` (stereo not drawn), the CC50 was 1.8 µM (active).

Take `CC1CC(C)CN(CCCNC(=O)Cn2nc(-c3ccc(Cl)cc3)ccc2=O)C1` (stereo not drawn): the CC50 was 14.5 µM (inactive).

As to `CC(CNC(=O)C1CCN(C)CC1)Cc1cccc2ccccc12` (stereo not drawn), the CC50 is 11.2 µM (active).

For `Cc1csc(NC(=O)CC[C@@H]2NC(=O)N(CCc3cccc(F)c3)C2=O)n1`, the CC50 was 8.9 µM (active).

As for `Nc1ccc(O)c2ncccc12`, the CC50 is 1.4 µM (active).

`O=c1[nH]c2ccccc2n1C1CCN(c2nccc(-c3cccnc3)n2)CC1`: the CC50 was 11.2 µM (active).

Turning to `c1ccc(-c2ccc(CNC3CN4CCC3CC4)cc2)cc1` (stereo not drawn), the CC50 was 5.6 µM (active).

For `CN(C)CCCN(CCCN(C)C)CC1=CCC2CC1C2(C)C` (stereo not drawn), the CC50 was 9.6 µM (active).

On to `CC(C)c1cc(Br)ccc1OCCCN1CCN(C)CC1`, for which the CC50 is 4.1 µM (active).

Take `CCn1c(Oc2cccc3cccnc23)nc2c1c(=O)n(C)c(=O)n2C`: the CC50 was 2.9 µM (active).

For `CNc1nc(Nc2cccc(NC(C)=O)c2)nc2ccccc12`, the CC50 is 5.2 µM (active).

`COc1ccc(CCN2C(=O)N(C)C(=O)C23CCN(Cc2cccc(OC)c2)CC3)cc1`: the CC50 is 6.6 µM (active).

For the molecule `COc1cc(CN2CCN(c3ccccc3C)CC2)ccc1O`, the CC50 was 8 µM (active).

As to `CCCc1cc(N2CCN(CCO)CC2)n2ncc(-c3ccccc3)c2n1`, the CC50 was 11.5 µM (active).

As for `CCCc1cc(NCCCN2CCOCC2)n2ncc(-c3ccccc3)c2n1`, the CC50 is 10.8 µM (active).

On to `CC1CN(CCS(=O)(=O)c2ccc(Oc3ccc(S(=O)(=O)CCN4CC(C)OC(C)C4)cc3)cc2)CC(C)O1` (stereo not drawn), for which the CC50 is 6.1 µM (active).

Regarding `CN(C)CCNCc1cccc(OCc2ccc(F)cc2)c1`, the CC50 is 15 µM (inactive).

`CN1CCN(CCCCOc2ccc(-c3ccccc3)cc2)CC1`: the CC50 is 4 µM (active).

For the molecule `Cc1ccccc1OCC(=O)Nc1ccc(OC2CCN(C)CC2)cc1`, the CC50 was 13.6 µM (inactive).

As for `COc1ccc(OC)c(S(=O)(=O)Nc2ccc3nc(S(C)(=O)=O)sc3c2)c1`, the CC50 is 6.9 µM (active).

For the molecule `Cc1ccc(S(=O)(=O)N2CCN(c3ccc(Nc4ccncc4)nn3)CC2)cc1`, the CC50 was 10.4 µM (active).

In the case of `c1ccc2c(NCCCCCCNc3c4c(nc5ccccc35)CCCC4)c3c(nc2c1)CCCC3`, the CC50 was 1.2 µM (active).

Take `COc1cccc(-c2noc(-c3ccc(N4CCN(C(C)C)CC4)nc3)n2)c1OC`: the CC50 is 13.1 µM (active).

Regarding `CC(C)c1ccc(CN(CCCN(C)C)CCCN(C)C)cc1`, the CC50 was 8.8 µM (active).

For `Cc1cc(F)ccc1N1CCC(N[C@@H]2CCOC[C@H]2OCC2CC2)CC1`, the CC50 was 15.6 µM (inactive).

`COc1ccc(C(O)CN2CCN(c3cc(C)ccc3C)CC2)cc1OC` (stereo not drawn): the CC50 was 10.2 µM (active).

Turning to `CCN1CCN(CC(O)COc2cc(C)c(Cl)c(C)c2)CC1` (stereo not drawn), the CC50 is 12.8 µM (inactive).

For `Cc1cc(OCC(O)CN2CCCCC2)cc(C)c1Cl` (stereo not drawn), the CC50 is 10.5 µM (active).

With `CCc1ccc(NC(=O)N2CCN(c3cc(-n4ccc(C)n4)ncn3)CC2)cc1`, the CC50 was 46.2 µM (inactive).

Take `CCCCn1c(=O)c(C(=O)Nc2ccc(O)cc2)c(O)c2ccccc21`: the CC50 is 23 µM (inactive).

`C[C@@H](C(=O)Nc1c2c(nn1C)CSC2)N1Cc2ccccc2C1=O`: the CC50 is 15.8 µM (inactive).

Take `CS(=O)(=O)N1CCc2ccc(NC(=O)Nc3ccc(F)cc3F)cc21`: the CC50 was 24.5 µM (inactive).

On to `Cc1cc(NC(=O)CSC(C)C)cc2sc(N)nc12`, for which the CC50 is 13.7 µM (active).

On to `COc1cc(CNCCN(C)C)ccc1OCc1ccc(F)cc1`, for which the CC50 is 13.1 µM (active).

In the case of `CN(c1ccc(C(=O)Nc2ccc(S(=O)(=O)N3CCOCC3)cc2)cc1)S(=O)(=O)c1ccccc1`, the CC50 was 2.9 µM (active).

Regarding `O=C(Nc1ccc2c(c1)OCCO2)N1CCN(c2ccnc(N3CCCCC3)n2)CC1`, the CC50 was 12.1 µM (active).

`CN1CCN(C)C(CNc2ncc(F)c(N(C)C)n2)C1` (stereo not drawn): the CC50 is 50 µM (inactive).

For `Nc1nc(Nc2ccc3c(c2)OCCO3)nc2ccccc12`, the CC50 was 8.7 µM (active).

As for `CCOc1cc(CNCC(C)O)ccc1OCc1ccc(C)cc1` (stereo not drawn), the CC50 is 9.4 µM (active).

Regarding `CC1(C)CC(=O)c2cn(-c3ccccc3)c(=O)c(C(=O)Nc3cccnc3)c2C1`, the CC50 is 9.2 µM (inactive).

Take `O=C(Nc1nc(-c2ccc(S(=O)(=O)N3CCOCC3)cc2)cs1)c1cccs1`: the CC50 is 5.3 µM (active).

`Cc1cc(OCCOCCN2CCN(C)CC2)c(Cl)c(C)c1Cl`: the CC50 was 5.3 µM (active).

In the case of `FC(F)(F)c1cccc(Nc2nc(-c3ccccc3)nc3ncccc23)c1`, the CC50 was 41.6 µM (inactive).

Regarding `Cc1ccc(Sc2cccc3nc(N)nc(N)c23)cc1`, the CC50 is 8.3 µM (active).

As for `COc1ccc(Nc2nccc(-c3cccnc3)n2)cc1`, the CC50 was 9.9 µM (active).

For the origin of these results see ChEMBL document CHEMBL5303711, “ECBD screening data for assay EOS300108” (2023).
